Laboratory results taken from patent publication EP4685128A1, “NOVEL 2-(1-HYDROXYPENTYL) BENZOIC ACID CYCLOALKYL AMINE SALT” (priority 2023, dated 2024).

Experiments:
MCAO rats [1] = experiment: Cerebral infarct volume (TTC staining) in rat MCAO ischemia-reperfusion model; format: in vivo; conditions: for extent of cerebral infarction compared with the model group: 24 h, t-test versus model group, doses as in Table 2; for Percentage of cerebral infarction volume (%): 24 hours after MCAO ischemia, tail vein, single dose, n=10
MCAO rats [2] = experiment: Neurological deficit scoring (Longa method) in rat MCAO ischemia-reperfusion stroke model; conditions: for neurological symptoms of rats compared with the model group: 24 h postoperatively, t-test versus model group, doses as in Table 1; for Score 2h: neurological deficit score 2 h after ischemia (administration started at reperfusion after 2 h); for Score 2h / Score 24h: tail vein, single dose, n=10; for Score 24h: neurological deficit score 24 h post-surgery
Protocol: Administration was initiated upon reperfusion after 2 hours of ischemia. The model and the sham operation group were given an equal volume 5% glucose injection solution via tail vein injection, while the other groups were injected with the corresponding drugs via tail vein, each with a single dose. […] Performing modeling surgery: The rat MCAO model was established with reference to the Longa intraluminal filament occlusion method. Nylon monofilament was cut into 2 cm lengths, the tip was dipped into a tiny amount of molten paraffin, after cooling, the ends of the nylon threads were completely wrapped for later use. The rats were completely anesthetized with 3% sodium pentobarbital (30 mg/kg), and placed supine, and secured on a surgical board. The cervical skin was prepared and disinfected, a 2-cm mid line incision was made. The left common carotid artery was bluntly isolated, and the external and internal carotid arteries were dissected free along the common carotid artery. The distal ends of the common carotid artery and the external carotid artery were ligated, and the internal carotid artery was occluded using hemostatic forceps. A small arteriotomy was made in the common carotid artery and the prepared nylon monofilament was inserted through the opening. The wax-coated tip was inserted into the common carotid artery and advanced into the internal carotid artery, the hemostat was released, and the advancement of the wax tip was stopped when it was 13-16 mm from the opening. The filament was secured, and the cervical incision was closed. After 2 h of occlusion, rats were anesthetized and the filament was withdrawn. In the sham operation group, rats were completely anesthetized with only 3% sodium pentobarbital. After cervical skin preparation and incision, the common carotid artery was bluntly isolated, and the wound immediately closed, without filament insertion. […] Neurological deficit scoring: scoring time: before modeling, 2 h after ischemia, and 24 h post-surgery, all surviving animals were scored in a blinded manner using a modified neurological deficit score. The scoring criteria of Longa's method were as follows: 0: normal neurological function; 1: mild neurological deficit: when suspended by the tail, the animal's left forelimb was flexed; 2: moderate neurological deficit: when placed on a smooth surface, the animal circles to the left side while walking; 3: moderate neurological deficit: at rest, the animal leans to the left side; 4: depressed consciousness with no spontaneous limb movements; 5: unresponsive to stimuli or death. […] Result analysis: The t-test was used to compare the behavioral test scores between groups.

[3] = tested on: platelet aggregation in rats; experiment: ADP-induced platelet aggregation in platelet-rich plasma of rats after oral gavage; format: in vivo; conditions: for Maximum platelet aggregation rate (%): blood taken 3 hours after gavage, 20µM ADP, platelet-rich plasma, n=10; for platelet aggregation rate compared with the solvent control group: significance versus solvent control group, doses as in Table 3
Protocol: After oral gavage administration for 3 hours on the same day, blood was collected from the abdominal aorta to obtain platelet-rich plasma from each group. Platelet aggregation was induced by 20µM ADP, and the maximum platelet aggregation rate in platelet-rich plasma was determined by platelet aggregometer, to evaluate and compare the effects of platelet aggregation in rats.

[4] = Stability test (influence factor test, Chinese Pharmacopoeia 2020 General Chapter 9001); conditions: for Decomposition product butylphthalide %: HPLC; for appearance / main peak and butylphthalide content: 30 days under open high-temperature and light exposure
Protocol: An appropriate amount of each compound to be tested was taken, and the influence factor test was conducted according to the General Chapter 9001 of Part 4 of the 2020 Edition of the Chinese Pharmacopoeia. The appearance of the compounds and the content of the main degradation product, butylphthalide, were detected respectively on day 0 and day 30 for each compound. The detection of butylphthalide was performed using high performance liquid chromatography, with a column packed with octadecylsilane-bonded silica gel, and a mobile phase of methanol-water (65:35).

SD rats = experiment: Repeated administration toxicity test in rats (14 days, tail vein); conditions: once daily for 14 consecutive days, n=10
[5] = Solubility test (Chinese Pharmacopoeia 2020 method); format: physicochemical
[6] = as stated for CN1523003A, background art; cited from earlier work
[7] = as stated for CN1523003A, background art; cited from earlier work; remark: listed apart in the source

## NC12CC3CC(CC(C3)C1)C2 [Amantadine, amantadine, reference compound]
MCAO rats [1]
  extent of cerebral infarction compared with the model group: no significant inhibitory effect
MCAO rats [1]; 0.016 mmol/kg
  Percentage of cerebral infarction volume (%): 35.1±4.56%
MCAO rats [2]
  neurological symptoms of rats compared with the model group: no significant improvement
MCAO rats [2]; group dose 0.016 mmol/kg
  Score 2h: 2.5±1.08
MCAO rats [2]; 0.016 mmol/kg
  Score 24h: 3.00±0.82

## CC(=O)Oc1ccccc1C(=O)O [Aspirin, reference compound]
[3]; ig 100 mg/kg
  Maximum platelet aggregation rate (%): 27.00±6.48 %
[3]
  platelet aggregation rate compared with the solvent control group: highly significantly different

## CCCCC1OC(=O)c2ccccc21 (stereo not shown) [Butylphthalide, reference compound]
MCAO rats [1]
  extent of cerebral infarction compared with the model group: significantly reduced
MCAO rats [1]; 0.053 mmol/kg
  Percentage of cerebral infarction volume (%): 31.0±7.50 %
MCAO rats [2]
  neurological symptoms of rats compared with the model group: significantly improved
MCAO rats [2]; group dose 0.053 mmol/kg
  Score 2h: 2.8±1.03
MCAO rats [2]; 0.053 mmol/kg
  Score 24h: 2.10±0.99
[3]; ig 200 mg/kg
  Maximum platelet aggregation rate (%): 57.50±9.05 %
[3]
  platelet aggregation rate compared with the solvent control group: significantly different

## CCCCC(O)c1ccccc1C(=O)O.NC12CC3CC(CC(C3)C1)C2 (stereo not shown) [Compound 1, amantadine 2-(1-hydroxypentyl)benzoate salt]
MCAO rats [1]
  extent of cerebral infarction compared with the model group: significantly reduced
MCAO rats [1]; 0.016 mmol/kg
  Percentage of cerebral infarction volume (%): 25.7±5.29 %
MCAO rats [2]
  neurological symptoms of rats compared with the model group: highly significant
MCAO rats [2]; group dose 0.016 mmol/kg
  Score 2h: 2.8±1.14
MCAO rats [2]; 0.016 mmol/kg
  Score 24h: 1.60±0.84
[3]; ig 200 mg/kg
  Maximum platelet aggregation rate (%): 34.60±9.57 %
[4]; 0 day
  Property: White powder
  Decomposition product butylphthalide %: 0.114%
[4]
  appearance: remains unchanged
  main peak and butylphthalide content: minimal variation
[4]; high humidity RH92.5%, 30 days
  Property: White powder
  Decomposition product butylphthalide %: 0.298%
SD rats; high dose 105 mg/kg
  Mortality rate (%): 0%
SD rats; low dose 15 mg/kg
  Mortality rate (%): 0%
SD rats; medium dose 45 mg/kg
  Mortality rate (%): 0%

## CC1C2CC3CC(C2)CC1(N)C3.CCCCC(O)c1ccccc1C(=O)O (stereo not shown) [Compound 3, 2-methyladamantan-1-amine 2-(1-hydroxypentyl)benzoate salt]
[3]; ig 200 mg/kg
  Maximum platelet aggregation rate (%): 37.50±9.42 %

## CC12CC3CC(C)(C1)CC(N)(C3)C2.CCCCC(O)c1ccccc1C(=O)O (stereo not shown) [Compound 4, 3,5-dimethyladamantane-1-amine 2-(1-hydroxypentyl)benzoate salt]
MCAO rats [1]
  extent of cerebral infarction compared with the model group: significantly reduced
MCAO rats [1]; 0.016 mmol/kg
  Percentage of cerebral infarction volume (%): 25.1±4.41 %
[5]; medium Water, about 0.01 g sample in 9.0 ml
  Solubility: Completely soluble
[5]; medium pH4.5, about 0.01 g sample in 9.0 ml
  Solubility: Completely soluble
[5]; medium pH6.8, about 0.01 g sample in 9.0 ml
  Solubility: Completely soluble
MCAO rats [2]
  neurological symptoms of rats compared with the model group: highly significant
MCAO rats [2]; group dose 0.016 mmol/kg
  Score 2h: 2.7±1.16
MCAO rats [2]; 0.016 mmol/kg
  Score 24h: 1.50±0.53
[3]; ig 200 mg/kg
  Maximum platelet aggregation rate (%): 38.10±6.24 %
[4]; 0 day
  Property: White powder
  Decomposition product butylphthalide %: 0.107%
[4]
  appearance: remains unchanged
  main peak and butylphthalide content: minimal variation
[4]; high humidity RH92.5%, 30 days
  Property: White powder
  Decomposition product butylphthalide %: 0.258%
SD rats; high dose 105 mg/kg
  Mortality rate (%): 0%
SD rats; low dose 15 mg/kg
  Mortality rate (%): 0%
SD rats; medium dose 45 mg/kg
  Mortality rate (%): 0%

## CCCC12CC3CC(CC(N)(C3)C1)C2.CCCCC(O)c1ccccc1C(=O)O (stereo not shown) [Compound 6, 3-n-propyladamantane-1-amine 2-(1-hydroxypentyl)benzoate salt]
[3]; ig 200 mg/kg
  Maximum platelet aggregation rate (%): 40.30±12.26 %

## CCCCC(O)c1ccccc1C(=O)O.NC12CC3CC(C1)C(F)C(C3)C2 (stereo not shown) [Compound 7, 4-fluoroadamantane-1-amine 2-(1-hydroxypentyl)benzoate salt]
[3]; ig 200 mg/kg
  Maximum platelet aggregation rate (%): 37.90±12.60 %

## CCCCC(O)c1ccccc1C(=O)O.N[C@@H]1[C@@H]2C[C@@H]3C[C@H]1C[C@@](O)(C3)C2 (stereo not drawn) [Compound 10, trans-1-hydroxyadamantan-4-amine 2-(1-hydroxypentyl)benzoate salt]
MCAO rats [1]
  extent of cerebral infarction compared with the model group: significantly reduced
MCAO rats [1]; 0.016 mmol/kg
  Percentage of cerebral infarction volume (%): 25.8±4.52 %
MCAO rats [2]
  neurological symptoms of rats compared with the model group: highly significant
MCAO rats [2]; group dose 0.016 mmol/kg
  Score 2h: 2.9±1.52
MCAO rats [2]; 0.016 mmol/kg
  Score 24h: 1.61±1.07
[3]; ig 200 mg/kg
  Maximum platelet aggregation rate (%): 38.20±12.25 %

## CCCCC(O)c1ccccc1C(=O)O.NC1CCC(O)CC1 (stereo not shown) [Compound 13, 4-hydroxycyclohexan-1-amine 2-(1-hydroxypentyl)benzoate salt]
[3]; ig 200 mg/kg
  Maximum platelet aggregation rate (%): 42.10±5.99 %

## CC1CC1N.CCCCC(O)c1ccccc1C(=O)O (stereo not shown) [Compound 15, 2-methylcyclopropane-1-amine 2-(1-hydroxypentyl)benzoate salt]
[3]; ig 200 mg/kg
  Maximum platelet aggregation rate (%): 41.10±6.45 %

## CC(C)NC(C)C.CCCCC(O)c1ccccc1C(=O)O (stereo not shown) [Diisopropylamine salt, 2-(1-hydroxypentyl)benzoic acid diisopropylamine salt, reference compound]
[4]; 0 day
  Property: White powder
  Decomposition product butylphthalide %: 0.087%
[4]; high humidity RH92.5%, 30 days
  Property: White powder
  Decomposition product butylphthalide %: 8.025%

## CCCCC(O)c1ccccc1C(=O)O.c1ccc(CNCCNCc2ccccc2)cc1 [N'N-dibenzylethylenediamine salt, reference compound]
[6]
  toxicity: lower toxicity
[3]; ig 200 mg/kg
  Maximum platelet aggregation rate (%): 46.6±10.78 %
[3]
  platelet aggregation rate compared with the solvent control group: highly significantly different

## CCCCC(O)c1ccccc1C(=O)[O-].[K+] (stereo not shown) [Potassium salt, 2-(1-hydroxypentyl)benzoic acid potassium salt, reference compound]
MCAO rats [1]
  extent of cerebral infarction compared with the model group: significantly reduced
MCAO rats [1]; 0.016 mmol/kg
  Percentage of cerebral infarction volume (%): 29.7±5.72 %
[6]
  toxicity: greater toxicity
MCAO rats [2]
  neurological symptoms of rats compared with the model group: significantly improved
MCAO rats [2]; group dose 0.016 mmol/kg
  Score 2h: 2.9±0.99
MCAO rats [2]; 0.016 mmol/kg
  Score 24h: 1.90±0.74
[3]; ig 200 mg/kg
  Maximum platelet aggregation rate (%): 48.50±8.29 %
[3]
  platelet aggregation rate compared with the solvent control group: highly significantly different
[4]; 0 day
  Property: White powder
  Decomposition product butylphthalide %: 0.090%
[4]; high humidity RH92.5%, 30 days
  Property: Partially deliquescent and liquefied
  Decomposition product butylphthalide %: 25.687%
[7]
  hygroscopicity: highly hygroscopic

## CC(C)(C)N.CCCCC(O)c1ccccc1C(=O)O (stereo not shown) [Tert-butylamine salt, 2-(1-hydroxypentyl)benzoic acid tert-butylamine salt, reference compound]
[6]
  toxicity: highly toxic
[4]; 0 day
  Property: White powder
  Decomposition product butylphthalide %: 0.041%
[4]; high humidity RH92.5%, 30 days
  Property: White powder
  Decomposition product butylphthalide %: 10.214%

## CCCCC(O)c1ccccc1C(=O)O.NCc1ccccc1 (stereo not shown) [benzylamine salt]
[6]
  toxicity: highly toxic

## Bicyclo[2,2,1]heptane-2-amine 2-(1-hydroxypentyl)benzoate salt [Compound 16]
[3]; ig 200 mg/kg
  Maximum platelet aggregation rate (%): 44.10±5.15 %
